The values that follow come from patent US4202892A, “Biocidal methyladamantyl hydrazines and pharmaceutical compositions containing them” (Teva Pharmaceutical Industries, Ltd., priority 1977, dated 1980).

Series [1] deals with stereotyped behaviour (sniffing, biting, repetitive head movement). As to the kind of experiment: Stereotyped behaviour in mice. Format: in vivo, Male ICR albino mice. Set-up: stereotyped behaviour score / Total Score (stereotyped behaviour) / Mean Score (stereotyped behaviour): scale not given here. The procedure:
Male ICR albino mice weighing 25-30 g were put in cages with a metal grid floor, 4 in each cage. Drugs were injected intraperitoneally and stereotyped behaviour (sniffing, biting, repetitive head movement) was evaluated every 30 min.

The test system of series [2] is haloperidol-induced catalepsy. The series can be described thus: Antiparkinson activity: anticataleptic effect in rats (haloperidol catalepsy). The series is classed as in vivo, Male Charles River albino rats. The following applies: individual rats, 80 mg/kg i.p., one line per rat, in order rat 1 to rat 5, hydrochloride. The procedure:
Male Charles River albino rats, weighing 200-250 g, were used. Catalepsy was produced by haloperidol, 5 mg/kg i.p. The animals were placed with their front paws on a horizontal bar, about 10 cm above the ground, and animals were considered cataleptic if not changing posture for at least 30 sec. Cataleptic animals were injected l.p. with one of the drugs at a dose of 40-80 mg/kg. Catalepsy was estimated again at the intervals indicated.
Male Charles River albino rats, wighing 200-250 g, were used. Catalepsy was produced by haloperidol, 5 mg/kg i.p. The animals were placed with their front paws on a horizontal bar, about 10 cm above the ground, and animals were considered cataleptic if not changing posture for at least 30 sec. Cataleptic animals were injected i.p. with one of the drugs at a dose of 40-80 mg/kg. catalepsy was estimated again at the intervals indicated.

A short description of series [3]: Toxic limit in the HSV replication test. The series is classed as cell-based, Green monkey. Particulars: monkey, bsc-1 cells; read-out: T.L. Toxic Limit (highest concentration of compound which is completely not toxic). From the text:
BSC-1 (Green monkey Kidney)
*T.L. The highest concentration of compound which is completely not toxic

Series [4] relates to 4 mycoplasma (M. gallisepticum, capricolum, M. hominis, A. laidlawii). As to the kind of experiment: organism not typed. The series is classed as cell-based. Particulars: read-out: 50% inhibition of growth in liquid medium, concentration.
A further series relates to HSV-1 (Herpes Simplex). As to the kind of experiment: Inhibition test on HSV replication. Format: cell-based. The following applies: Human alphaherpesvirus 1, BSC-1 cells, 10 PFU/cell. An excerpt: |INHIBITION TEST ON HSV REPLICATION |Cells |BSC-1 (Green monkey Kidney) |Virus |HSV-1 (Herpes Simplex) |Inoculum |10 PFU/cell |Medium |DMEM + 10% C.S. | Herpes | J. Levitt & Y. Becker | Virology 31, 129-134 (1967) | **% Inhibition of control infected for some time with same virus PFV with | no inhibition.

Values joined by “and” are separate entries in the source; they are usually repeats but may differ in a detail not shown here. Identical values can stand only once. Counter-ions that a name gives are not always drawn.

Turning to `C1CCN(NCC23CC4CC(CC(C4)C2)C3)C1` [Example 7, 1-(Adamant-1'-ylmethylamino)pyrrolidine hydrochloride], the “Total Score (stereotyped behaviour)” value in series [1] (0-240 min, 50 mg/kg i.p., one line per mouse, in order Mouse 1 to Mouse 4, hydrochloride, 50 mg/kg) is 17 and 11 and 6 and 3. For the same molecule, the stereotyped behaviour score is 0 in series [1] (0 min, 50 mg/kg i.p., one line per mouse, in order Mouse 1 to Mouse 4); 2 and 0 (3×) in series [1] (30 min, 50 mg/kg i.p., one line per mouse, in order Mouse 1 to Mouse 4, hydrochloride, 50 mg/kg); 2 and 0 (2×) and 1 in series [1] (45 min, 50 mg/kg i.p., one line per mouse, in order Mouse 1 to Mouse 4, hydrochloride, 50 mg/kg); 2 and 0 (3×) in series [1] (60 min, 50 mg/kg i.p., one line per mouse, in order Mouse 1 to Mouse 4, hydrochloride, 50 mg/kg); 2 (2×) and 0 (2×) in series [1] (90 min, 50 mg/kg i.p., one line per mouse, in order Mouse 1 to Mouse 4, hydrochloride, 50 mg/kg); 2 (2×) and 0 (2×) in series [1] (120 min, 50 mg/kg i.p., one line per mouse, in order Mouse 1 to Mouse 4, hydrochloride, 50 mg/kg). Besides, the stereotyped behaviour score in series [1] (135 min, 50 mg/kg i.p., one line per mouse, in order Mouse 1 to Mouse 4, hydrochloride, 50 mg/kg) was 2 (2×) and 0 (2×); in series [1] (150 min, 50 mg/kg i.p., one line per mouse, in order Mouse 1 to Mouse 4, hydrochloride, 50 mg/kg) it was 2 (2×) and 1 and 0; in series [1] (180 min, 50 mg/kg i.p., one line per mouse, in order Mouse 1 to Mouse 4, hydrochloride, 50 mg/kg), 1 (3×) and 0; in series [1] (210 min, 50 mg/kg i.p., one line per mouse, in order Mouse 1 to Mouse 4, hydrochloride, 50 mg/kg) it was 1 (2×) and 2 (2×); in series [1] (240 min, 50 mg/kg i.p., one line per mouse, in order Mouse 1 to Mouse 4), 1. Further, in series [1] (mean of 4 mice, 50 mg/kg i.p.), the “Mean Score (stereotyped behaviour)” value was 9.25. Moreover, the “found to be active” value in series [1] (summary of the CNS tests) is reported as “active”. For the same molecule, the anticataleptic effect in series [2] was 1/4 and 0/4 (3×) and 3/4. The MNTC in series [3] was 50 µg/mL. The IC50 in series [4] fell in the range of 5 to 30 µg/mL. In the series on HSV-1 (Herpes Simplex) (25 μg/ml), this molecule displayed an inhibition at 25 µg/mL of 72.5%. Moreover, the inhibition at 50 µg/mL in the series with HSV-1 (Herpes Simplex) (50 μg/ml) stood at 92%. For the same molecule, in the series on HSV-1 (Herpes Simplex) (75 μg/ml), testing at 75 µg/mL gave an inhibition of 98%. The molecule also yielded an inhibition at 100 µg/mL in the series on HSV-1 (Herpes Simplex) (100 μg/ml) of 99.9%.
